Measurements published in US20160083424A1, “COMPOSITIONS AND METHODS FOR TARGETING ANTIGEN-PRESENTING CELLS” (OSLO UNIVERSITETSSYKEHUS HF, priority 2013, published 2016).
Where no end group is shown, it is not given here. siRNA = not defined here

What was measured:
Monocytes = assay: Competition of NW phage binding by NW peptide and its mutant peptides; set-up: species or system human; conditions: for competition with NW phage binding / peptide binding to monocytes: mutant peptides, four concentrations (0.4, 2, 8, 20 μM)
Method: (§1) In brief, aliquots of DCs (10^5) were divided into conical 96-well micro-plate, washed with PBS buffer containing 1% FCS, and then incubated with the amplified phages (≈10^9 TU) for 30-60 min on ice. After washing, cells were incubated with biotinylated anti-M13 monoclonal antibody (Abcam) and then with phycoerythrin (PE)-conjugated streptavidin. Competition assays were performed by pre-incubating DCs with different amounts of the peptides for 15 min on ice. Then NW phage (≈10^9 TU) was added and samples incubated for additional 60 min on ice. After washing, bound phages were detected as indicated above. Samples were analyzed by FACSCanto II flow cytometry.
To uncover the contribution of individual side chains and identify which amino acids are responsible for the NW peptide binding to monocytes and dendritic cells, alanine scanning was performed. Derivatives of the NW peptide were synthesized with exchange of each amino acid by alanine (FIG. 11A). These peptide derivatives were used to compete with the NW phage binding to monocytes. For each peptide, four concentrations were tested. Bound phage particles were detected with the use of biotin conjugated anti-M13 antibody and PE-conjugated streptavidin. The NW peptide (WT) competed effectively with the phage binding to monocytes with an IC50 of approximately 0.5 uM. The replacement of tryptophan (W) at position 2, 6, or 12 by a single alanine abolished the binding. Indeed, no significant competition with the phage binding was seen even at high peptide concentrations (C4=20 uM). Similarly, replacement of leucine (L) at position 4 or 7 by alanine inhibited the peptide binding (FIG. 11B).

iDCs [1] = assay: Peptide binding by flow cytometry; set-up: species or system human
Method: The cells were seeded onto 24-well plate (3×10^5/well/0.5 ml) in X-vivo 15 medium and incubated overnight at 37° C. Subsequently, they were incubated with 6IAF-conjugated peptides (5 μg/ml) for 30 min at 37° C., gently scraped, washed 3 times and then analyzed by flow cytometry. Binding was also performed at 4° C.

iDC = assay: Competition of NW phage binding by synthetic peptides; set-up: species or system human
Method: as §1
To further investigate the importance of the NW peptide on phage binding, competition experiments were performed using synthetic peptides.

[2] = tested on: autologous CD4 or CD8 T cells; assay: Autologous stimulation of T lymphocytes by DCs exposed to targeted pp65 peptides, [3H] thymidine incorporation; format: cell-based, human; conditions: semi mDCs loaded at 4° C., HLA-A2+/CMV positive donors, 5 days
Method: (§2) Peptides at a concentration of 5 μg/ml were incubated with semi mDCs from HLA-A2/CMV-positive donors for 60 min at 4° C. Subsequently, they were washed to remove unbound peptides. Autologous stimulation was done in 96-well tissue culture plates in X-vivo 15 medium. Briefly, DCs were mixed with 10^5 autologous CD4 or CD8 T cells at a DC/lymphocytes ratios of 1/5 and 1/10 in a final volume of 250 μl. Cells were incubated for 5 days and then they were pulsed with [^3H] thymidine and harvested 16 h later. [^3H] thymidine incorporation was measured in a β-scintillation counter. In some experiments, the cells were cultured for 8 days and then stained with dextramers specific for pp65 NLVPMVATV (SEQ ID NO:19) epitope.
The capacity of the NW-pp65 fusion peptide (60-mer) to activate T cells from HLA-A2+/CMV positive donors was evaluated. It should be noted that the 48-mer pp65 peptide contains both MHC class I (e.g. NLVPMVATV) (SEQ ID NO:19) and class II (e.g. AGILARNLVPMVATV (SEQ ID NO:23), FFWDANDIYRI (SEQ ID NO:24)) epitopes, allowing the detection of CD4 and CD8 T-cell responses (24-26). […] All cultures were incubated at 37° C. for 5 days and T-cell activation was determined by measuring their proliferation potential (FIG. 6A). […]

[3] = tested on: CD8 T cells specific for the NLVPMVATV epitope; assay: Dextramer staining of CD8 T cells after stimulation with peptide-exposed DCs; format: cell-based, human; conditions: DC-stimulated CD8 T cells, CMV positive donors, equal molar concentrations, n=3
Method: as §2
(§3) Dextramers with CMV (NLVPMVATV) (SEQ ID NO:19) and HIV (ILKEPVHGV) (SEQ ID NO:22) HLA-A2 specific antigens were obtained from Immudex (Copenhagen, Denmark). Antibodies against human CD8, CD19 and CD56 were obtained from eBioscience (San Diego, Calif., USA). […] Cells were washed and resuspended in SB containing 1% paraformaldehyd and analyzed on a BD SLR II flow cytometer. The data were analyzed using FCS Express (De Novo Software, Los Angeles, Calif., USA).

[4] = tested on: pp65-specific naïve T cells; assay: Induction of CMV-pp65-specific T cells from naive donor repertoire, dextramer staining; format: cell-based, human; conditions: CD45RO-depleted PBMCs, HLA-A2+/CMV negative donors, IL-7, representative example
Method: (§4) PBMC from HLA-A2/CMV+ donors were thawed, washed and then incubated with the peptides (5 μg/ml) for 60 min at 4° C. Subsequently, the cells were washed twice and then plated at 2×10^5 cells per well in 96-well tissue culture plate. Cells were cultured for 5 days and subsequently they were pulsed with [^3H] thymidine and harvested 16 h later. In some experiments, the cells were cultured for 12 days and then stained with dextramers specific for pp65 NLVPMVATV (SEQ ID NO:19) epitope. Monocyte-depleted PBMCs were also used. To analyze primary immune responses against pp65 protein, PBMCs from HLA-A2+/CMV-negative donors were used. Autologous DCs were incubated with either NW-pp65 or GA-pp65 peptide (5 μg/ml) at 4° C. for 1 h, followed by three washes to remove unbound peptides. Subsequently, the cells were incubated with CD45RO-depleted PBMC (responder cells) and co-cultured for 10 days at ratio 1/10 (DC to responder cells) in X-vivo 15 medium supplemented with 10 ng/ml human IL-7 for 10 days. […]
as §3, with “Denmark).” for “Denmark). Antibodies against human CD8, CD19 and CD56 were obtained from eBioscience (San Diego, Calif., USA).”, “USA). […]” for “USA).”

PBMCs = assay: Autologous stimulation of PBMCs with pp65 targeted peptides, [3H] thymidine incorporation; format: cell-based, human; conditions: whole PBMCs, peptides at 4° C., 5 days at 37° C.
Method: as §4, with “days. After 2 rounds of stimulation (8 days each) with autologous DC loaded with peptides, the cells were stained with dextramers specific for pp65 NLVPMVATV (SEQ ID NO:19) epitope. To test spontaneous uptake of peptides by DCs, PBMCs from HLA-A2+/CMV positive donors were incubated at 37° C. with various concentrations of untargeted or targeted pp65 peptide for 90 min.” for “days.”

[5] = tested on: CD8 T cells against NLVPMVATV epitope; assay: Dextramer staining of CD8 T cells after PBMC stimulation with pp65 peptides; format: cell-based, human
Method: PBMC from HLA-A2/CMV+ donors were thawed, washed and then incubated with the peptides (5 μg/ml) for 60 min at 4° C. Subsequently, the cells were washed twice and then plated at 2×10^5 cells per well in 96-well tissue culture plate. Cells were cultured for 5 days and subsequently they were pulsed with [^3H] thymidine and harvested 16 h later. In some experiments, the cells were cultured for 12 days and then stained with dextramers specific for pp65 NLVPMVATV (SEQ ID NO:19) epitope. Monocyte-depleted PBMCs were also used. To analyze primary immune responses against pp65 protein, PBMCs from HLA-A2+/CMV-negative donors were used. Autologous DCs were incubated with either NW-pp65 or GA-pp65 peptide (5 μg/ml) at 4° C. for 1 h, followed by three washes to remove unbound peptides. Subsequently, the cells were incubated with CD45RO-depleted PBMC (responder cells) and co-cultured for 10 days at ratio 1/10 (DC to responder cells) in X-vivo 15 medium supplemented with 10 ng/ml human IL-7 for 10 days. After 2 rounds of stimulation (8 days each) with autologous DC loaded with peptides, the cells were stained with dextramers specific for pp65 NLVPMVATV (SEQ ID NO:19) epitope. To test spontaneous uptake of peptides by DCs, PBMCs from HLA-A2+/CMV positive donors were incubated at 37° C. with various concentrations of untargeted or targeted pp65 peptide for 90 min. Subsequently, the cells were washed to remove unbound peptides and cultured at 37° C. for 12 days and then stained with dextramers specific for pp65 NLVPMVATV (SEQ ID NO:19) epitope.
Dextramers with CMV (NLVPMVATV) (SEQ ID NO:19) and HIV (ILKEPVHGV) (SEQ ID NO:22) HLA-A2 specific antigens were obtained from Immudex (Copenhagen, Denmark). Antibodies against human CD8, CD19 and CD56 were obtained from eBioscience (San Diego, Calif., USA). Briefly, around 10^6 cells were washed and resuspended in 50 μl staining buffer SB (PBS with 0.1% human serum albumin and 0.1% NaN3) containing 1 mg/ml aggregated α-globulin and then stained with dextramer for 10 min in the dark at room temperature. Subsequently, antibodies against CD8, CD19 and CD56 were added and incubation continued for additional 20 min. Cells were washed and resuspended in SB containing 1% paraformaldehyd and analyzed on a BD SLR II flow cytometer. The data were analyzed using FCS Express (De Novo Software, Los Angeles, Calif., USA).
Monocytes have the capacity to differentiate into macrophages or inflammatory DCs in-vitro and in-vivo (Auffray et al., (2009) Annu Rev. Immunol. 27, 669-92). Given that the NW peptide bound to blood monocytes, it was investigated whether this binding affects T-cell activation. Therefore, proliferation assays were performed with whole PBMCs. […]

[6] = tested on: PBMC cultures from CMV-positive donors; assay: IFN-γ production in PBMC cultures; format: cell-based, human; conditions: PBMCs from HLA-A2+/CMV positive
Method: (A) PBMCs from HLA-A2+/CMV-positive donors were incubated with the indicated fusion peptides for 60 min at 4° C., washed and then incubated at 37° C. for […]. T-cell proliferation was monitored by thymidine incorporation. (B) Dextramer staining of CD8 T cells against NLVPMVATV (SEQ ID NO:19) epitope. (C) As in A and B, but monocyte-depleted PBMCs were used. (D) INF-γ and IL-10 levels in PBMC culture supernatants determined by ELISA.
Next, the immunostimulatory potential of the NW-pp65 fusion peptide was evaluated by assessing its ability to stimulate the overall IFN-γ and IL-10 production in PBMC cultures from CMV-positive donors (FIG. 8D).

iDCs [7] = assay: Phage binding by flow cytometry; set-up: species or system human; conditions: binding of the phage clones to iDC, flow cytometry
Method: as §1

iDCs [8] = assay: Binding and internalization of peptide-siRNA conjugates by microscopy; format: cell-based, human
Method: Then the medium was replaced with fresh medium and the cells were incubated with the peptides (5 μg/ml) for 60 min at 37° C. followed by 5 min incubation with Hoechst 33342 (Invitrogen Dynal AS, Oslo, Norway). The cells were washed twice with PBS and fixed with 4% paraformaldehyde for 15 min at 4° C. After washing, slides were covered with Dako cytomation fluorescent mounting medium and then images were taken with either epifluorescence (Leica DM RHC, Leica Microscopy As, Oslo, Norway) or confocal microscopy (Zeiss LSM 510, […]).
One of the major challenges to the clinical development of gene silencing by small interfering RNA (siRNA) is its effective delivery to target cells (Whitehead et al., Nat Rev Drug Discov 8, 129-138). Given the effective internalization of NW peptide by DCs, its potential to direct siRNAs to DCs was evaluated. First, a fluorescence labeled siRNA targeting mouse IL-10 was covalently conjugated to the NW-peptide (NW peptide with GGGSC (SEQ ID NO:43) linker) through a thiol linkage and then the binding of the conjugates to iDCs was investigated by epifluorescence microcopy. In contrast to free siRNA molecules, the peptide siRNA conjugates bound to DCs (FIG. 10A).

[9] = molecular target: NW peptide receptor (human); assay: competition with NW phage binding to monocytes, flow cytometry

Deletion of N10D11: NW peptide with N10 and D11 deleted; likely NWYLPWLGTW (SEQ ID NO:38)
reduction in IC50 relative to NW peptide (Monocytes; monocytes): approximately 20 fold | competition with NW phage binding / peptide binding to monocytes (Monocytes): reduced the binding

GALDTTHHRPWTC [control peptide, irrelevant control peptide, reference compound]
binding of 6-IAF-conjugated peptides to iDCs (iDCs [1]; 4° C. and 37° C.): no significant binding | inhibition of the phage binding to iDC by synthetic peptides (iDC): but not an irrelevant control peptide, effectively inhibited

GALDTTHHRPWTGCFTWPPWQAGILARNLVPMVATVQGQNLKYQEFFWDANDIYRIFAEL [GA-60-mer, 48-mer CMV pp65 peptide fused to control peptide, reference compound]
T-cell activation (proliferation, [3H]-thymidine) [2]: no significant effect | dextramer-positive CD8 T cells specific for NLVPMVATV [3]: 0.51% | pp65-specific naïve T cells (dextramer staining) [4]: 0.01% | T-cell proliferation ([3H]-thymidine) (PBMCs): did not | CTL response (dextramer staining) ([5]; monocyte-depleted PBMCs): 0.53% | CTL response (dextramer staining) ([5]; whole PBMCs, n=3): 0.45% | proportion of CD8 and CD4 T cells that produced IFN-γ [6]: very low response

GETRAPL [DC19]
Binding (iDCs [7]): +++ (binding <80%: +++)

N10D11 double mutant: NW peptide with asparagine 10 and aspartic acid 11 both replaced by alanine (NWYLPWLGTAAW)
mean fluorescence of bound phage (Monocytes; at C3 concentration (8 μM), unstained cells 250): ~250 | competition with NW phage binding / peptide binding to monocytes (Monocytes): effectively competed

NWYGAGAGTNDW [NW-mutant, NW-peptide lacking the motif LPWL]
inhibition of the phage binding to iDC by synthetic peptides (iDC): failed to reduce binding

NWYLPWLGTNDWAGILARNLVPMVATVQGQNLC [NW-33-mer, CMV pp65 peptide fused to NW peptide]
binding of 6IAF-conjugated pp65 fusion peptides to DCs (iDCs [1]; iDCs): bound to iDCs

QLPRTAL [DC10]
Binding (iDCs [7]): +++ (binding <80%: +++)

QWELPWLMQPPL [DC6]
Binding (iDCs [7]): ++++ (Binding >80-100%: ++++)

SPGLSLVSHMQT [DC13]
Binding (iDCs [7]): +++ (binding <80%: +++)

peptide siRNA conjugates: fluorescence labeled siRNA targeting mouse IL-10 covalently conjugated to NW peptide with GGGSC linker through a thiol linkage (NWYLPWLGTNDWGGGSC(siRNA); not fully specified; reading uncertain)
intracellular delivery of peptide-siRNA conjugates (iDCs [8]; confocal microscopy): confirmed the intracellular delivery | binding of peptide siRNA conjugates to DCs (iDCs [8]; epifluorescence microscopy, iDCs): bound to DCs

B1: NW peptide (peptide)
peptide: NWYLPWLGTNDWC
modifications: also: carries 6-iodoacetamidofluorescein in direct binding assays
IC50 [9]: 500 nM
